Measured values from publication PMC12677653, “Inhibition of Tumor Lipogenesis and Growth by Peptide‐Based Targeting of SREBP Activation” (Advanced Science, 2025).

Legend:
Type in all cases: cell-based, human
[1] = tested on: Insig1 S207/Insig2 S151 phosphorylation; experiment: Immunoblot of Insig1 S207/Insig2 S151 phosphorylation, Hep3B; details: Hep3B cells, peptide 7.5 or 15 μM 1 h before IGF1 100 ng/mL
Procedure: (§1) Cellular proteins were extracted using ice‐cold lysis buffer [50 mM Tris‐HCl (pH 7.5), 150 mM NaCl, 0.1% SDS, 1% Triton X‐100, 1 mM DTT, 0.5 mM EDTA] supplemented with protease inhibitor cocktail (Roche) and phosphatase inhibitors (Bimake). Following lysis, cell extracts were centrifuged at 13400 × g for 15 min at 4 °C to remove cellular debris. The clarified supernatants were then incubated with primary antibodies overnight at 4 °C with gentle rotation. For Flag‐tagged protein immunoprecipitation, Flag M2 magnetic beads (Sigma) were added to the lysate‐antibody mixture and incubated for an additional 4 h at 4 °C. The immunocomplexes were washed three times with lysis buffer under stringent conditions (5 min per wash with rotation). Finally, the precipitated proteins were eluted and analyzed by immunoblotting as previously described.^[ [35] ^]
e) Hep3B cells were pretreated with low (7.5 μM) or high (15 μM) concentrations of Insig1/2 loop 1 peptide for 1 h before IGF1 (100 ng ml⁻¹) stimulation.

[2] = tested on: Insig1 S207 phosphorylation; experiment: Immunoblot of Insig1 S207 phosphorylation, HCT116; details: HCT116 cells, peptide 15 μM 1 h before IGF1 100 ng/mL
Procedure: as §1
h) HCT116 cells were pretreated with Insig1/2 loop1 peptide (15 μM) for 1 h before IGF1 (100 ng ml⁻¹) stimulation.

Huh7 cells [3] = experiment: Triglyceride (TG) detection assay, Huh7; details: peptide 25 µM, IGF1 100 ng/mL 24 h, n = 3
Procedure: Figure 1 The Insig1/2 loop 1 peptide binds to S90‐phosphorylated PCK1 and blocks PCK1‐mediated SREBP activation and tumor cell proliferation. Immunoblotting analyses were performed using the indicated antibodies; representative results from three independent experiments are shown (IP, immunoprecipitation; WB, western blot). a) Huh7 cells expressing various Insig1 (top) or Insig2 (bottom) truncation mutants were treated with or without IGF1 (100 ng mL^−1) for 1 h. b,c) Biolayer interferometry assays (Sartorius Octet) were employed to measure the binding affinity of Insig1/2 loop 1 peptide to GST‐PCK1 or GST‐PCK1 pS90 proteins. […] Statistical significance was determined by one‐way analysis of variance (ANOVA). g) Following pretreatment with Insig1/2 loop 1 peptide (15 µM) and IGF1 stimulation (100 ng mL^−1, 8 h), Huh7 cells were subjected to immunofluorescence analysis (scale bar: 10 µm). h) Quantitative PCR analysis of SREBP1 target gene GPAM in Huh7 cells pretreated with Insig1/2 loop 1 peptide (15 µM) and stimulated with IGF1 (100 ng mL^−1) for 10 h. […] Statistical significance was determined by one‐way analysis of variance (ANOVA). i) Quantitative PCR analysis of SREBP1 target gene FASN in Huh7 cells pretreated with Insig1/2 loop 1 peptide (15 µM) and stimulated with IGF1 (100 ng mL^−1) for 10 h. […]

Huh7 cells [4] = experiment: Cell proliferation, Huh7; details: peptide 25 µM 1 h, IGF1 100 ng/mL 72 h, automated cell counting, n = 3

RKKRRQRRRLYPCIDSHLGEPHKFKRE [Insig1/2 loop 1 peptide]
Insig1 S207/Insig2 S151 phosphorylation [1]: markedly inhibited | Insig1 S207 phosphorylation [2]: inhibited | IGF1-induced increase in triglycerides (TGs) (Huh7 cells [3]): reduced | IGF1-induced increase in proliferation (Huh7 cells [4]): inhibited
